Laboratory results taken from patent publication US20080096967A1, “Formulations for Injection of Catecholic Butanes, Including Ndga Compounds, Into Animals” (priority 2005, published 2008).

Tests used:
[1] = system: C-33A, an HPV-negative human cervical cancer cell line; assay: Cell proliferation and cell death, trypan blue exclusion, C-33A cells; type: cell-based; conditions: for Proliferation Rate: treated/untreated cells
Experimental: M4N in 10% (w/v) HP-β-CD and 25% (v/v) PEG 300 (hereafter, the “CPE formulation”), M4N in 30% (w/v) HP-β-CD and 25% (v/v) PEG 300 (hereafter, the “CPE 25/30 formulation”) and M4N in 27% (w/v) HP-β-CD and 33% (v/v) PEG 300 (hereafter, the “CPE 33/27 formulation”) was tested for their effects on cell death and proliferation on two different tumor cell lines: HeLa, an HPV-18 positive human cervical cancer cell line, and C-33A, an HPV-negative human cervical cancer cell line M4N in DMSO was also tested in parallel. Both tumor cell lines were treated with increasing amounts of M4N: 0 μM, 20 μM, 40 μM, 60 μM and 80 μM, for 72 hr with the DMSO or the CPE formulation. Each formulation was added to total 1% of the growth media (Minimal Essential Medium with L-glutamine supplemented with 10% fetal bovine serum, 1 mM sodium pyruvate, 1× non-essential amino acid solution, and 1,000 IU/mL penicillin/1,000 μg/mL streptomycin solution). Control cells were grown under the same conditions and were left untreated. After 72 hr of treatment or no treatment, the total number of cells and the number of live cells in each sample were counted, using the trypan blue exclusion method. The cell proliferation rate and the percentage of dead cells in each sample were analyzed. Results of this experiment are shown in FIG. 1, FIG. 2, and Tables 6 through 12.
FIG. 1 is a graphical representation of the ratio of the number of treated cells/number of untreated cells plotted against increasing concentrations of M4N in either the DMSO formulation or the CPE formulation for treatment of the C-33A cells and HeLa cells. FIG. 2 is a graphical representation of the percentage of dead cells plotted against increasing concentrations of M4N and in either DMSO formulation or the CPE formulation for treatment of the two cancer cell lines, C-33A and HeLa cells in culture.

[2] = Solubility of M4N in water-insoluble lipids (visual inspection); type: physicochemical
Experimental: A 10 mL solution of M4N at a concentration of about 50 mg/mL in sesame oil was made as follows. About 10 mL of sesame oil were added to a glass beaker containing a stir bar. The beaker was placed on a magnetic plate and the stir bar was set to stir at medium speed. About 500 mg of M4N were slowly added to the sesame oil in the center of the beaker with the aid of a spatula to prevent M4N from sticking to the beaker wall. The M4N/sesame oil mixture was stirred for about 2 hr or until all M4N had dissolved or was uniformly suspended without any clump being present. The M4N/sesame oil mixture was heated at about 60° C. for about 30 min. (or longer if a larger volume of solution was desired, for example, 1 hr at 60° C. for 500 mL of the M4N/sesame oil mixture), or longer as need to ensure complete dissolution of M4N. […] If crystals formed, the M4N/sesame oil solution could be heated again at 60° C. for about 1 hr, with stirring, on a hot magnetic plate until all M4N was dissolved back in solution. The final M4N/sesame oil solution was stored at room temperature and was kept protected from light.
A 10 mL solution of M4N at a concentration of about 60 mg/mL in 85% sesame oil and 15% Tween® 20 was made as follows. About 8.5 mL of sesame oil were added to a glass beaker containing a stir bar. The beaker was placed on a magnetic plate and the stir bar was set to stir at medium speed. About 1.5 mL of Tween® 20 was slowly added to the center of the beaker. About 600 mg of M4N were slowly added to the sesame oil/Tween® 20 mixture in the center of the beaker with the aid of a spatula to prevent M4N from sticking to the beaker wall. The M4N/sesame oil/Tween® 20 mixture was stirred for about 2 hr or until all M4N had dissolved or was uniformly suspended without any clumps being present. The M4N/sesame oil/Tween® 20 mixture was heated at about 60° C. for about 30 min. (or longer if a larger volume of solution was desired, for example, 1 hr at 60° C. for 500 mL of the M4N/sesame oil/Tween® 20 mixture), or longer as need to ensure complete dissolution of M4N. […]

[3] = M4N 20 μM in CPE formulation, 72 hr
[4] = M4N 60 μM in CPE formulation, 72 hr
[5] = M4N 80 μM in CPE formulation, 72 hr

With `COc1ccc(C[C@@H](C)[C@@H](C)Cc2ccc(OC)c(OC)c2)cc1OC` [Formulation M4N, meso-1,4-bis(3,4-dimethoxyphenyl)-2,3-dimethylbutane] the “cell death, share of the cell population” value ([1]; 80 μM or […] M4N in CPE formulation) was “about 20%”, the “cell death, share of the cell population” value ([1]; 80 μM or […] M4N in DMSO formulation) was “about 40%” and the “M4N sufficient to cause about a 50% inhibition in cell proliferation” value ([1]; CPE formulation, 72 hr) was roughly 7.2 µg/mL. For the same compound, the “% Dead Cells” value [1, 3] was 7.0%, the “% Viability” value [1, 3] was 93.0% and the “Proliferation Rate” value [1, 3] was 0.43. The “% Dead Cells” value ([1]; M4N 20 μM in DMSO, 72 hr) was 17.4%, the “% Viability” value ([1]; M4N 20 μM in DMSO, 72 hr) was 82.6% and the “Proliferation Rate” value ([1]; M4N 20 μM in DMSO, 72 hr) was 0.20. The “Proliferation Rate” value ([1]; M4N 40 μM in CPE formulation, 72 hr) was 0.43, the “% Dead Cells” value ([1]; M4N 40 μM in DMSO, 72 hr) was 33.0% and the “% Viability” value ([1]; M4N 40 μM in DMSO, 72 hr) was 67.0%. The “Proliferation Rate” value ([1]; M4N 40 μM in DMSO, 72 hr) was 0.15, the “% Dead Cells” value [1, 4] was 10.6% and the “% Viability” value [1, 4] was 89.4%. For the same compound, the “Proliferation Rate” value [1, 4] was 0.22, the “% Dead Cells” value ([1]; M4N 60 μM in DMSO, 72 hr) was 39.6% and the “% Viability” value ([1]; M4N 60 μM in DMSO, 72 hr) was 60.4%. The “Proliferation Rate” value ([1]; M4N 60 μM in DMSO, 72 hr) was 0.14, the “% Dead Cells” value [1, 5] was 22.5% and the “% Viability” value [1, 5] was 77.5%. For the same compound, the “Proliferation Rate” value [1, 5] was 0.15, the “% Dead Cells” value ([1]; M4N 80 μM in DMSO, 72 hr) was 43.3% and the “% Viability” value ([1]; M4N 80 μM in DMSO, 72 hr) was 56.7%. For the same compound, the “Proliferation Rate” value ([1]; M4N 80 μM in DMSO, 72 hr) was 0.11, the Cell proliferation rate ([1]; M4N in DMSO or CPE formulation vs non-M4N-treated controls in the same formulation) was “reduced” and the “stable at room temperature” value ([2]; 89% sesame oil and 11% Tween® 20, M4N 29 mg/mL, dissolved at 60° C.) was “more than 7 days”. For the same compound, the “Stability Time at Room Temperature” value ([2]; Sesame Oil and Tween ® 20: 10% Oil emulsion in 90% saline, M4N 2.9 mg/mL) was less than 3 days and the “stable at room temperature” value ([2]; sesame oil, M4N 50 mg/mL) was “less than 1 day”.
